Experimental data: US8227502B2, “Amides acting on the adenosine receptors” (Anamar AB, priority 2006, dated 2012)

Each molecule was assayed on antigen induced arthritis (assay: Antigen induced arthritis (AIA), knee joint swelling). Details: rat, per oral administration, FIG. 1.
Format: in vivo
Description: Antigen Induced Arthritis (AIA) in the rat is a well reproducible monoarthritis model. An intraarticular injection of the antigen methylated bovine serum albumin (mBSA) in the knee joint in sensitised animals induces an inflammatory response. The formation of pannus tissue, which invades the synovium, spreads over the articular cartilage and grows into the bone, leading to tissue erosion and remodeling.
AIA responds well to compounds used for standard clinical treatment of human arthritis. Therefore this model is appropriate for the evaluation of the effects of new compounds on joint inflammation and cartilage/bone degradation. The test compounds can be administered locally or systemically. The features of the arthritis can be followed and evaluated by measuring knee joint swelling, by functional scoring and histological analysis. Since it is a monoarthritis model, the level of inflammatory serum markers may be difficult to detect. The AIA model also serves as a source for the production of synoviocytes for in vitro culturing, in order to gain further insight in the synovial matrix composition and for drug screening purposes.
In Antigen induced arthritis—for the effect on knee diameter of Compound 1:16 after per oral administration—see FIG. 1.

| SMILES | swelling of the knee (knee diameter) |
| --- | --- |
| NCCC(=O)N(CCc1c[nH]c2ccccc12)C(C(=O)Nc1ccccc1)c1ccc(Br)cc1Br (centres unmarked) [Compound 1:16, 3-Amino-N-[(2,4-dibromo-phenyl)-phenylcarbamoyl-methyl]-N-[2-(1H-indol-3-yl)-ethyl]-propionamide] | reduced the swelling of the knee |

What follows are molecules tested against T1, adenosine A2A receptor (Homo sapiens, UniProt P29274) (assay: Affinity for adenosine A2A receptor ([3H]CGS21680 binding, per Varani et al.)). Details: not given.
T1 construct: from tissue
Description: The affinity and functionality towards the adenosine A2A receptor was essentially performed as described by Varani et al. (Varani, Pharmacological and biochemical characterization of purified A2A adenosine receptors in human platelet membranes by [^3H]CGS21680 binding, Br. J. Pharmacol. 117:1693-1701, 1996), Table 1.

T1 sequence (P29274 whole entry): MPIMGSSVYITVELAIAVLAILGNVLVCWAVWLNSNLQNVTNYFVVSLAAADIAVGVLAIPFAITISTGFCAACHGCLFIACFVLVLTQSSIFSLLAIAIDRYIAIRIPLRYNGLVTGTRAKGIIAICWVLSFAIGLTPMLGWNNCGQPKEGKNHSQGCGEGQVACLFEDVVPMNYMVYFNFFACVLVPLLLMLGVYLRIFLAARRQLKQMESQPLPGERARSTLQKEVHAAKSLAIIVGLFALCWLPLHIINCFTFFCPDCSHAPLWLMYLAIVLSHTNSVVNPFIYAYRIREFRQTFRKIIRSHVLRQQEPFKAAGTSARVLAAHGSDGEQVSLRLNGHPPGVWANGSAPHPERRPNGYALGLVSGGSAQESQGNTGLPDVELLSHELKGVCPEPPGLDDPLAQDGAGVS

| SMILES | Ki | IC50 |
| --- | --- | --- |
| NCCC(=O)N(CCc1c[nH]c2ccccc12)C(C(=O)NC1CCCCC1)c1ccccc1Br (centres unmarked) [1:02, 3-Amino-N-[(2-bromo-phenyl)-cyclohexylcarbamoyl-methyl]-N-[2-(1H-indol-3-yl)-ethyl]-propionamide] | 1000 nM |  |
| NCCC(=O)N(CCc1c[nH]c2ccccc12)C(C(=O)NC1CCCCC1)c1ccc(Br)cc1Br (centres unmarked) [1:04, 3-Amino-N-[cyclohexylcarbamoyl-(2,4-dibromo-phenyl)-methyl]-N-[2-(1H-indol-3-yl)-ethyl]-propionamide] | 1600 nM | 2840 nM |
| NCCC(=O)N(CCc1c[nH]c2ccccc12)C(C(=O)NCc1ccccc1)c1ccc(Br)cc1Br (centres unmarked) [1:09, 3-Amino-N-[benzylcarbamoyl-(2,4-dibromo-phenyl)-methyl]-N-[2-(1H-indol-3-yl)-ethyl]-propionamide] | 2870 nM | 5110 nM |
| NCCC(=O)N(CCc1c[nH]c2ccccc12)C(C(=O)Nc1ccccc1)c1ccccc1Br (centres unmarked) [1:13, 3-Amino-N-[(2-bromo-phenyl)-phenylcarbamoyl-methyl]-N-[2-(1H-indol-3-yl)-ethyl]-propionamide] | 60 nM |  |
| NCCC(=O)N(CCc1c[nH]c2ccccc12)C(C(=O)Nc1ccccc1)c1ccc(Br)cc1 (centres unmarked) [1:15, 3-Amino-N-[(4-bromo-phenyl)-phenylcarbamoyl-methyl]-N-[2-(1H-indol-3-yl)-ethyl]-propionamide] | 136 nM | 243 nM |
| NCCC(=O)N(CCc1c[nH]c2ccccc12)C(C(=O)Nc1ccccc1)c1ccc(Br)cc1Br (centres unmarked) [Compound 1:16, 3-Amino-N-[(2,4-dibromo-phenyl)-phenylcarbamoyl-methyl]-N-[2-(1H-indol-3-yl)-ethyl]-propionamide] | 17.5 nM | 31.1 nM |
